From patent publication EP3820512B1, “IMMUNOMODULATING COMPOSITIONS COMPRISING OLIGOSACCHARIDE DERIVATIVES” (priority 2018, dated 2020)

Assays:
[1] = test system: hyperoxia induced BPD in mouse pups; experiment: Hyperoxia-exposed BPD mouse model (newborn pups); type: in vivo
Description: Neonatal mice and humans undergo similar stages of lung development but differ with respect to the duration of each stage and its temporal relationship to gestational age. The lungs of the mouse born at term are in the saccular stage and are surfactant sufficient; this can be considered somewhat akin to a human preterm neonate in the same stage of lung development that has been exposed to a full complement of antenatal steroids (which is known to enhance surfactant production). In terms of mimicking the human condition, the most successful hyperoxia models are those that limit exposure to hyperoxia to the saccular stage of pulmonary development. The mouse BPD model involves exposing newborn mice (postnatal day 1 or PN1) to 100% oxygen till PN4 followed by recovery in room air (RA) for another 10 days.
After the recovery period, their lungs were harvested and processed for quantitative PCR, western blotting, histopathology and ELISA.
After the recovery period, their lungs were harvested and processed for quantitative PCR, western blotting and histopathology and ELISA.
BPD is characterized by large simplified alveoli, inflammation, increased cell death, decreased cell proliferation, dysmorphic capillary configuration, and variable interstitial cellularity and/or fibroproliferation. […] This is determined by measuring the alveolar chord length, septal thickness and radial alveolar count (RAC). In BPD, the alveolar area increases which is characterized by increase in the diameter of the alveolar sacs, the septa become thickened (thus interfering in gaseous exchange) and the RAC, a parameter used to assess the complexity of terminal respiratory unit by pulmonologists, decreases as a result of arrested lung development.

[2] = test system: VEGF induced tube formation in HUVECs; experiment: Anti-angiogenic activity, Tube Formation kit, VEGF induced; type: cell-based, human; settings: VEGF 100ng/mL
Protocol: Selected TLR2/4 antagonist compounds 2, 6, 7, 8, 14, 17 and 32 were evaluated for anti-angiogenic activity using the Tube Formation kit (Cat#3470-096-K). VEGF (100ng/mL) was used as positive control. These compounds have potential applications in diseases associated with pathological angiogenesis such as solid tumor, […], diabetic retinopathy as well as AMD.

TLR7/8 = TLR7/8 modulation: cytokine ELISA in hPBMC, alone or with TLR7/8 ligand CL075; type: cell-based, human
Description: Compound 8 modulates the TLR7/8 activities in a concentration dependent manner.

[3] = test system: LPS induced lung injury in mice; experiment: LPS-induced ALI model; type: in vivo, C57BL/6 mice
Description: (§1) Male C57BL/6 mice (Jackson Laboratories,) 12-15 weeks old, 25 - 28 gms, housed up to 5 per cage were used.
The lungs were sectioned for histopathological assessment after H/E staining while the BAL fluid was used to detect total cell counts (neutrophils and macrophages) and measure protein (that exudes by leakage).

TLR6 = biological target: T1, TLR6 (Homo sapiens, UniProt Q9Y2C9); experiment: TLR6 stimulation: IL-6 ELISA in hPBMC with TLR6 ligand Pam2CSK4; type: cell-based; settings: in combination with Pam2CSK4, hPBMC, 24h
T1 construct: endogenous in cells; host or cells: hPBMC (human peripheral blood monocytes)
Protocol: Compound 8 stimulates the TLR6 activities and upregulates the production of IL-6 cytokine in combination with TLR6 ligand Pam2CSK4 in hPBMC after 24h of treatment as detected by ELISA (FIG. 9).

TLR4 [4] = biological target: T2, TLR4 (Homo sapiens, UniProt O00206); experiment: TLR4 inhibitory and activating activity in THP-1 cells at low and high concentrations; type: cell-based; set-up: endogenous in cells; host or cells: THP-1 (human monocytic) cells
hPBMC = experiment: Cytotoxicity in hPBMC, MTT cell proliferation kit; type: cell-based, human; settings: 0.1, 1.0, 10, 100 and 1000 µM, 24h
Protocol: The cells were treated with compounds and incubated for 24h. Cell viability was assessed using MTT cell proliferation kit (Promega).

TLR2 = biological target: T3, TLR2 (Homo sapiens, UniProt O60603); experiment: TLR2 activity in PMA-stimulated THP-1 monocyte cells, ELISA of cell lysate; type: cell-based; settings: THP-1 cells
T3 construct: endogenous in cells; host or cells: THP-1 monocyte cells stimulated with PMA
Protocol: THP-1 monocyte cells (1×10^5) were stimulated with 200nM of PMA for 48h and treated with different concentrations of test compounds. The TLR2 activity was measured after 24 h from the cell lysate using ELISA.

[5] = test system: THP-1 (human monocytic) cells; experiment: Cytokine response (IL-1β, TNF-α, IL-10) of THP-1 cells treated with compounds; type: cell-based; settings: 100-200 µM
Protocol: When THP-1 (human monocytic) cells were treated with 100-200 µM of compounds 8, 14, 17, 23, 29, and 32, they produced an increased IL-1β and TNF-α response, decreased anti-inflammatory cytokine IL-10 (FIG. 4).

TLR4 [6] = biological target: T2, TLR4; experiment: TLR4 modulation: IL-1β ELISA in hPBMC, alone or with TLR4 ligand LPS; type: cell-based; set-up: endogenous in cells
Description: Compound 8 modulates the TLR4 activities in a concentration dependent manner.

[7] = test system: human peripheral blood monocytes; experiment: IL-10 production in human peripheral blood monocytes; type: cell-based; settings: after 48 h
[8] = test system: hyperoxia-induced lung injury in mice; experiment: Hyperoxia induced ALI model; type: in vivo, C57BL/6 mice
Protocol: as §1
Hyperoxia induced ALI model: The ARDS model consists of exposing adult mice in 100% oxygen for 48h followed by injecting with test compounds. Adult mice (N=5) were housed in plexi chamber with a constant and continuous supply of 100% oxygen for 48h. […] The mice were sacrificed after 48 h to harvest lung tissues and collect (BAL) fluid.

T2 sequence (O00206 24-839): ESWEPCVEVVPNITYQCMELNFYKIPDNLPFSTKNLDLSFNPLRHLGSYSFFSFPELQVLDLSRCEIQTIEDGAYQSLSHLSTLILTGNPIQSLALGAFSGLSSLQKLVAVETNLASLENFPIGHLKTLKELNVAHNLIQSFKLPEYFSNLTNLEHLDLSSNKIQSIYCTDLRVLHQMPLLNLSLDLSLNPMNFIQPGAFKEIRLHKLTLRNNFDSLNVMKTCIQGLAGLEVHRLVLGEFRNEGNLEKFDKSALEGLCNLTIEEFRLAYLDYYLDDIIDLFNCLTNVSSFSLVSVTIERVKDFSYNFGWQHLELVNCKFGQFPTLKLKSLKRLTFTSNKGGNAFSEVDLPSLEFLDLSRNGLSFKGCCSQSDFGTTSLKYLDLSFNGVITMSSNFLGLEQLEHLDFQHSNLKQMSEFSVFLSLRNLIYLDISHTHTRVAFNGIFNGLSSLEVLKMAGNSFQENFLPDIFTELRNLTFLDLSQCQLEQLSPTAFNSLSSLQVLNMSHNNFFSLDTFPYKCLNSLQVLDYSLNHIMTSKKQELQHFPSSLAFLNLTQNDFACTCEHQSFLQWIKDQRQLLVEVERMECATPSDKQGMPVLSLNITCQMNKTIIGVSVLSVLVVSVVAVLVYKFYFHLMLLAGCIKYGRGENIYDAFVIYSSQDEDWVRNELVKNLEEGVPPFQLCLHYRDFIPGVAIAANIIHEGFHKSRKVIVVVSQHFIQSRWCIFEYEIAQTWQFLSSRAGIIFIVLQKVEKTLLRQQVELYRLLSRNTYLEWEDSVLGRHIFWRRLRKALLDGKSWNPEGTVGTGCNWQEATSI
T2 sequence (Q9Y6Y9 17-160 partner limits assumed): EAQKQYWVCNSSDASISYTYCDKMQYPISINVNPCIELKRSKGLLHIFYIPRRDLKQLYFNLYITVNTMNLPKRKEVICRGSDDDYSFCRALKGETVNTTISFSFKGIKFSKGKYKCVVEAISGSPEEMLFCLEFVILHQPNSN
T3 sequence (O60603 21-784): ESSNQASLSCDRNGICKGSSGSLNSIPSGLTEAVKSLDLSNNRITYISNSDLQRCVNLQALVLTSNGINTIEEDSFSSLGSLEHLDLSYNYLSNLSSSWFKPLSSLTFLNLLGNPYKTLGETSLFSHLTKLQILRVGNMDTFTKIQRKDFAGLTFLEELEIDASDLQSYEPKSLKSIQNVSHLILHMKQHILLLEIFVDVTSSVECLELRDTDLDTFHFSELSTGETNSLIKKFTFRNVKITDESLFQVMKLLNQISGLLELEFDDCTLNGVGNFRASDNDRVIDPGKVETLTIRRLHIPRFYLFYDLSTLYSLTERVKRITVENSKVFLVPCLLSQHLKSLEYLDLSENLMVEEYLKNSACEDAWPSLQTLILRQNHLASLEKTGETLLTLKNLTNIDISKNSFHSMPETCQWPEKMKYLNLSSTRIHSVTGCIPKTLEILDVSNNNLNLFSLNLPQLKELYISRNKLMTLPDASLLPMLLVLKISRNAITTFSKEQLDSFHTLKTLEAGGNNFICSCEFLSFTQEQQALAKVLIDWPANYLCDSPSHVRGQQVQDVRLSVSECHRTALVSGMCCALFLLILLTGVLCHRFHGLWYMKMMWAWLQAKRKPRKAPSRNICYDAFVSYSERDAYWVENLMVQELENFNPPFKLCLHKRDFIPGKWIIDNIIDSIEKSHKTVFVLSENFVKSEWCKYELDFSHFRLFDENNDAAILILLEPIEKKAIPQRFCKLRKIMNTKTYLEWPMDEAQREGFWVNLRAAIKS
T1 sequence (Q9Y2C9 32-796): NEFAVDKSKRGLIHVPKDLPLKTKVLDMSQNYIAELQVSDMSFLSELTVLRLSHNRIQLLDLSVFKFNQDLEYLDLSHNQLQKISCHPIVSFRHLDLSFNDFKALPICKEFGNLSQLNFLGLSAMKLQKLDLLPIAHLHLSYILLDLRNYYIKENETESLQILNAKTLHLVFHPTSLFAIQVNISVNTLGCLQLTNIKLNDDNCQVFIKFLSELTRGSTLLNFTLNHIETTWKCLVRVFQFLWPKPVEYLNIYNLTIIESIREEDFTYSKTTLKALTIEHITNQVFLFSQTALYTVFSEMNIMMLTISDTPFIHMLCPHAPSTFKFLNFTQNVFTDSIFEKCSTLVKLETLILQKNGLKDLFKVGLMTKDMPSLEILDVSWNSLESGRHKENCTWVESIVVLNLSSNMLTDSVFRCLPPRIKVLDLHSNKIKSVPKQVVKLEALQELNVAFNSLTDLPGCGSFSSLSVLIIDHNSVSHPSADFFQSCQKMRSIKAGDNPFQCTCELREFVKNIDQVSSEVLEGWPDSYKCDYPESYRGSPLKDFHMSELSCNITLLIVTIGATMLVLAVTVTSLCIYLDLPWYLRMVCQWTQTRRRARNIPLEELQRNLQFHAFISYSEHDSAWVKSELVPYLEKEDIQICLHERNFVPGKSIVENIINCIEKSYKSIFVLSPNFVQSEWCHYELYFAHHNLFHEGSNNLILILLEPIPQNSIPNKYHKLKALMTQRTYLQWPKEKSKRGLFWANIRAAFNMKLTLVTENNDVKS
T1 sequence (O60603 21-784 partner): as the sequence (O60603 21-784) above

CC(=O)N[C@H]1[C@H](Oc2ccc([N+](=O)[O-])cc2)O[C@H](CO)[C@@H](O)[C@@H]1O [Compound 8, p-Nitrophenyl 2-acetamido-2-deoxy-β-D-glucopyranoside]
IFN-Y ([1]; 10mg/kg, ELISA (FIG. 26)): decreases
IL-1β ([1]; 10mg/kg, ELISA (FIG. 26)): decreases
IL-6 ([1]; 10mg/kg, ELISA (FIG. 26)): decreases
IL-17 ([1]; 10mg/kg, ELISA (FIG. 26)): decreases
MCP-1 ([1]; 10mg/kg, ELISA (FIG. 26)): decreases
MIP-2 ([1]; 10mg/kg, ELISA (FIG. 26)): decreases
TNF-α ([1]; 10mg/kg, ELISA (FIG. 26)): decreases
anti-inflammatory cytokine IL-10 ([1]; 10mg/kg, ELISA (FIG. 26H)): increase
hyperoxia induced BPD ([1]; IP and IV, saline solution, 5mg/kg or 10 mg/kg on PN2 and PN4 (FIG. 24)): prevent
chord length ([1]; IP injection (FIG. 25)): improvement
radial alveolar count ([1]; IP injection (FIG. 25)): improvement
septal thickness ([1]; IP injection (FIG. 25)): improvement
Inflammatory cytokines in lung tissue and serum ([1]; after injections): decreased
TLR4 inhibition in vivo ([1]; neonatal pups with BPD): inhibit
lung architecture ([1]; saline (IV) and nanosuspension (IN) formulation): restored
VEGF induced tube formation [2]: significantly decreased
IL-10 protein level (TLR7/8; 0.1 µM to <1 µM, alone or in combination with CL075, hPBMC, 24h, ELISA): downregulate
production of IL-1β (TLR7/8; 1.0 µM, alone and in combination with CL075, hPBMC): significantly stimulated
protection against LPS induced lung injury ([3]; IP 10mg/kg at 4h and 12h post LPS, sacrifice after 24 h): significant protection
LPS-induced lung inflammation ([3]; IP injection): ameliorated
production of IL-6 cytokine (TLR6): upregulates
% inhibition over control TLR4 (TLR4 [4]; Concentration 1-10 µM, THP-1 cells): +++ (+++ means that the % of inhibition or activation is in the range of 75-95%)
% activation over control TLR4 (TLR4 [4]; Concentration 75-100 µM, THP-1 cells): ++ (++ means that the % of inhibition or activation is in the range of 25-75%)
TLR4 modulatory activity (TLR4 [4]; summary in words): concentration dependent TLR4 modulatory activity
cytotoxicity in hPBMC (cell viability) (hPBMC): not toxic
% inhibition over control TLR2 (TLR2; Concentration 1-10 µM): + (+ means that the % of inhibition or activation is in the range of 15-25%)
% inhibition over control TLR2 (TLR2; Concentration 75-100 µM): ++ (++ means that the % of inhibition or activation is in the range of 25-75%)
IL-1β response [5]: increased
TNF-α response [5]: increased
anti-inflammatory cytokine IL-10 [5]: decreased
IL-1β protein level (TLR4 [6]; 0.1 µM to <1 µM, alone or in combination with LPS, 24h, ELISA): downregulate
production of IL-1β (TLR4 [6]; 1.0 µM, alone and in combination with LPS): significantly stimulated
IL-10 production ([7]; 0.1-1.0 µM): increase
IL-10 production ([7]; 10-100 µM): decrease
protection against hyperoxia induced lung injury ([8]; IP 10 mg/kg, two doses, 100% oxygen 48h): significant protection
hyperoxia-induced lung inflammation ([8]; IP injection): ameliorated
